Assay results as given in article PMC4381330, “Identification of a novel selective agonist of PPARγ with no promotion of adipogenesis and less inhibition of osteoblastogenesis” (Scientific Reports, 2015).

How the values were obtained:
[1] = system: PPARγ target genes in differentiating 3T3-L1 cells; experiment: Expression of adipogenesis-related and PPARγ-responsive genes in differentiating 3T3-L1 adipocytes (qPCR); assay type: cell-based, mouse
Protocol: 3T3-L1 preadipocytes were grown to confluency in DMEM containing 10% CS. At 2 days post-confluency, the cells were stimulated with differentiation medium (DMEM containing 10% FBS, 10 μg/mL insulin, 1 μM dexamethasone, and 0.5 mM IBMX) for 48 h. Then, the cells were exposed in post-differentiation-maintaining medium (DMEM containing 10% FBS and 10 μg/mL insulin) for a further 48 h, which was replaced with expansion medium (DMEM containing 10% FBS) every 2 days after then. Compounds were added to the post-differentiation and expansion medium. At day 4, the cells were harvested for RNA preparation. At Day 8, the cells were fixed with 10% formaldehyde and stained with Oil red O solution. After washing with water, photos were taken. Solubilized dye was quantified at 550 nm. In addition, total triglyceride of the cells was measured by a total TG measurement kit (Applygene, China). Experiments were performed at least three times.
Total RNA was extracted using TRIzol reagent (Invitrogen). First-strand cDNA was synthesized from the total RNA using a reverse transcriptional kit (TransGen). Quantitative PCR with SYBR Green (Roche Diagnostics, Lewes, UK) was performed on a Stratagene MX3000P real-time PCR system (Agilent). Melting curves were obtained, and the specificity of PCR products was checked on agarose gels. Relative mRNA expression was determined by the ΔΔCt method and normalized to GAPDH mRNA levels.

PPARγ Y473A = target: T1, PPARγ Y473A (Homo sapiens, UniProt P37231, Y501A); experiment: Y473A assay (PPARγ reporter gene assay with Tyr473 of pBIND-PPARγ-LBD mutated into alanine); assay type: cell-based
T1 construct: expressed in transfected cells; host or cells: HEK293T
T1 sequence (P37231 172-476 isoform P37231-2 Y473A): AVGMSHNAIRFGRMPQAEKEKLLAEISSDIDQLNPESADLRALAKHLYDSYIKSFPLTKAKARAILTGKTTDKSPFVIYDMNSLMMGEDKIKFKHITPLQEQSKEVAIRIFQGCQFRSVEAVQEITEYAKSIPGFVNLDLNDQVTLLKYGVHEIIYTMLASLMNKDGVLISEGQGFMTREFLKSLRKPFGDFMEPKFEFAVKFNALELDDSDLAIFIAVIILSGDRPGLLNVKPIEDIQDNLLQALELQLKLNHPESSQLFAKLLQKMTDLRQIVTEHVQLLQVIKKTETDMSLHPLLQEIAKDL
Protocol: All chemicals were purchased from Sigma-Aldrich (St. Louis, MO, USA). All medium and serum were obtained from Gibco (Invitrogen). The wild-type gene of human PPARγ-LBD (amino acids 172–476) was obtained by PCR and cloned into pBIND vector (Promega). Mutations in pBIND-PPARγ-LBD were created by site-directed mutagenesis using the Fast Mutagenesis System (TransGen Biotech, Beijing, China).
The determination of nuclear receptor activation was performed as previously. Briefly, HEK293T cells were transfected with GAL4-pGL4-luc reporter plasmid and pBIND-PPARγ-LBD expression plasmid using Lipofectamine 2000 (Invitrogen) for 6 h before treatment with compounds for 20–24 h. Activity was determined by the Luciferase Assay System (Promega).
Supplementary Figure 1: Workflow of virtual screening and the procedure used for selecting hits whose bioactivity was experimentally tested. We developed a virtual screening workflow by Discovery Studio 4.0 software to identify selective agonists of PPARγ. The key steps of this workflow is the two pharmacophore models. One is the antipharmacophore model which excludes compounds whose structure are similar to known full agonists, the other one is the pharmacophore model which identifies selective agonists. Biological assays were performed after virtual steps to further screen leads. […]

diabetic KKAy mice = experiment: Diabetic KKAy mice, 21 days treatment (fasting blood glucose, OGTT, ITT, body weight)
Protocol: Fasting blood glucose was measured with Onetoch Ultra Teststrip (Johnson & Johnson) at day 0, 3, 7, 14, 21, and body weight were monitored during these days.
After 14 days of treatment, oral glucose tolerance test (OGTT) was performed. Mice were fasted for 6 h with free access to water. 2 g/kg of glucose was given by gavage and blood glucose was measured at 0, 30, 60, 90, and 120 min.
After 21 days of feeding, insulin tolerance test (ITT) was carried out. Mice were fasted for 4 h before being injected 1 U/kg of recombinant human insulin (Novo Nordisk) subcutaneously, and blood glucose was measured at 0, 40, 90, and 120 min after insulin injection.

**Q.** “2-[2-(1, 2-dimethyl-1H-indol-3-yl)-2-oxo-acetylamino]-benzamide [Compound F12016]” was tested. Which “AdipQ mRNA expression” value [1] did it give?
**A.** The value was “increased AdipQ mRNA expression”.

**Q.** And the “mRNA levels of 11β-HSD1” value [1]?
**A.** Its value is “similarly decreased the mRNA levels”.

**Q.** And the “transcription of Pdk4” value [1]?
**A.** Its value is “decreased transcription”.

**Q.** And the “expression of fatty acid synthase (Fasn)” value ([1]; both compounds to a similar extent)?
**A.** Its value is “upregulated expression”.

**Q.** And the “expression of adipogenesis-related genes (CEBP/α, PEPCK, FABP4, CD36, Gyk, Elvol3, Cox7a1)” value ([1]; compared with rosiglitazone)?
**A.** Its value is “induced much less expression”.

**Q.** And the “induction of lipoprotein lipase (LPL)” value ([1]; compared with rosiglitazone)?
**A.** Its value is “less than that induced by rosiglitazone”.

**Q.** And the EC50 (PPARγ Y473A)?
**A.** The EC50 was 5.21 µM.

**Q.** What about the “PPARγ Y473A (RGZ %)” value (PPARγ Y473A; activation relative to rosiglitazone (RGZ)) of the same substance?
**A.** Its value is 29.12%.

**Q.** What about the fasting blood glucose (diabetic KKAy mice; F12016 75 mg/kg by gavage once daily, day 3, 7, 14 and 21, vs vehicle) of the same substance?
**A.** The fasting blood glucose was “significantly reduced fasting blood glucose”.

**Q.** What about the “glucose tolerance (OGTT)” value (diabetic KKAy mice; after 14 days of treatment, 2 g/kg glucose, F12016 75 mg/kg) of the same substance?
**A.** Its value is “significantly improved glucose tolerance”.

**Q.** What about the “blood glucose after insulin injection (ITT)” value (diabetic KKAy mice; after 21 days, insulin 1 IU/kg, F12016 75 mg/kg, rosiglitazone 5 mg/kg) of the same substance?
**A.** Its value is “significantly reduced blood glucose”.

**Q.** And the average body weight (diabetic KKAy mice; after 21 days, F12016 75 mg/kg, rosiglitazone 5 mg/kg, vs vehicle)?
**A.** The average body weight was “much lower than that of vehicle controls”.
